From ChEMBL document CHEMBL1141685, “Hexahydro-pyrrolo- and hexahydro-1H-pyrido[1,2-b]pyridazin-2-ones as potent inhibitors of HCV NS5B polymerase” (Bioorg Med Chem Lett, 2008)

Tests used:
[1] = Metabolic stability in human liver microsomes at 1 uM
[2] = Cytotoxicity against human Huh7/C24 cells after 72 hrs […]; type: cell-based, Huh-7
[3] = test system: Hepatitis C virus; assay: Antiviral activity against HCV 1b infected in human Huh7/C24 cells after 72 hrs by replicon assay; type: functional, organism-based, Hepacivirus hominis; settings: genotype 1b, Huh-7, 72 h
[4] = test system: Hepatitis C virus; assay: Inhibition of HCV 1b NS5B polymerase by microbeta scintillation counter; set-up: species or system Hepatitis C virus subtype 1b
[5] = Metabolic stability in cynomolgus monkey liver microsomes at 1 uM
[6] = Metabolic stability in human liver microsomes assessed as compound remaining at 1 uM after 60 mins; type: ADME, Microsome; settings: read-out: Stability
[7] = Apparent permeability from apical to basolateral side in human Caco-2 cell membrane at 10 uM
[8] = Metabolic stability in cynomolgus monkey liver microsomes assessed as compound remaining at 1 uM after 60 mins; type: ADME, Macaca fascicularis, Microsome; settings: read-out: Stability
[9] = Fabs in cynomolgus monkey; type: ADME, organism-based, Macaca fascicularis; settings: in vivo, read-out: Fabs
[10] = test system: Cynomolgus monkey; assay: AUC (0 to infinity) in cynomolgus monkey at 1 mg/kg, po; type: ADME, organism-based, Macaca fascicularis, Plasma; set-up: time infinity, dose 1 mg/kg, route oral; settings: in vivo
[11] = Oral bioavailability in cynomolgus monkey at 1 mg/kg; type: ADME, organism-based, Macaca fascicularis; settings: in vivo
[12] = test system: Cynomolgus monkey; assay: AUC (0 to infinity) in cynomolgus monkey at 1 mg/kg, iv; type: ADME, organism-based, Macaca fascicularis, Plasma; set-up: time infinity, dose 1 mg/kg, route intravenous; settings: in vivo
[13] = test system: Cynomolgus monkey; assay: Hepatic blood flow in cynomolgus monkey; type: ADME, organism-based, Macaca fascicularis, Liver

half-life at 1 µM ([1]; liver microsomes) [min]	EC50 [3] [nM]	half-life at 1 µM ([5]; liver microsomes) [min]	remaining at 1 h, 1 µM [6] [%]	half-life at 1 µM ([1]; microsomes) [min]	Papp A→B at 10 µM [7] [×10⁻⁶ cm/s]	half-life at 1 µM ([5]; microsomes) [min]	remaining at 1 h, 1 µM [8] [%]	Fa [9] [%]	AUC [10] [ng·h/mL]	bioavailability [11] [%]	AUC [12] [ng·h/mL]	QH [13] [mL/min/kg]	Structure (SMILES)	CC50 at 72 h [2] [nM]	IC50 [4] [nM]
52	110	18			0.31								CC(C)(C)CCN1C(=O)C(C2=NS(=O)(=O)c3cc(NS(C)(=O)=O)ccc3N2)=C(O)C2CCCCN21 (configuration not stated)	> 33000	41
	34			59	0.44	7.5		8	344	7	5180	44	CC(C)(C)CCN1C(=O)C(C2=NS(=O)(=O)c3cc(NS(C)(=O)=O)ccc3N2)=C(O)C2CCCN21 (configuration not stated)	> 1000	< 10
	160		65	> 60	0.2	63							CC(C)CCN1C(=O)C(C2=NS(=O)(=O)c3cc(NS(C)(=O)=O)ccc3N2)=C(O)C2CCCN21 (configuration not stated)	> 1000	12

Continued, molecule first:

Structure (SMILES)	half-life at 1 µM ([1]; liver microsomes) [min]	EC50 [3] [nM]	half-life at 1 µM ([5]; liver microsomes) [min]	remaining at 1 h, 1 µM [6] [%]	half-life at 1 µM ([1]; microsomes) [min]	Papp A→B at 10 µM [7] [×10⁻⁶ cm/s]	half-life at 1 µM ([5]; microsomes) [min]	remaining at 1 h, 1 µM [8] [%]	Fa [9] [%]	AUC [10] [ng·h/mL]	bioavailability [11] [%]	AUC [12] [ng·h/mL]	QH [13] [mL/min/kg]	CC50 at 72 h [2] [nM]	IC50 [4] [nM]
CS(=O)(=O)Nc1ccc2c(c1)S(=O)(=O)N=C(c1c(O)c3cccn3n(Cc3ccc(F)cc3)c1=O)N2	> 60	12	> 60	86										> 1000	< 10
CS(=O)(=O)Nc1ccc2c(c1)S(=O)(=O)N=C(C1=C(O)C3CCCCN3N(Cc3ccc(F)cc3)C1=O)N2 (configuration not stated)		300		102	> 60	0.1	> 60	100						> 1000	16
CN(c1ccc2c(c1)S(=O)(=O)N=C(C1=C(O)C3CCCN3N(CCC(C)(C)C)C1=O)N2)S(C)(=O)=O (configuration not stated)	> 60	3600	17											> 33000	160
CC(C)(C)CCN1C(=O)C(C2=NS(=O)(=O)c3cc(NS(C)(=O)=O)ccc3N2)=C(O)C2(C)CCCN12 (configuration not stated)	4.9	1100	10			0.6								> 33000	180
CS(=O)(=O)Nc1ccc2c(c1)S(=O)(=O)N=C(C1=C(O)C3CCCN3N(Cc3ccc(F)cc3)C1=O)N2 (configuration not stated)	> 60	190	> 60	87		0.2		94						> 1000	< 10
